From US11419852B2, “Beta-lactam compounds or salts thereof for use in long-acting prevention or treatment of a glucose metabolism disorder” (GLYCOLYSIS BIOMED CO., LTD., priority 2019, dated 2022)
Marks after values point to notes of the source that are not given here.

Legend:
Type in all cases: in vivo
[1] = Food and water intake of mice
Experimental: Four to five weeks old db/db mice (BKS.Cg-Dock7^m+/+Lepr^db/JNarl) and m/m mice (BKS.Cg-Dock7^m+/Dock7^m+) were obtained from National Laboratory Animal Center ([…], Taiwan). […] PMI Nutrition International, Brentwood, Mo.) and water ad libitum. […] The mouse body weight (bw) and the amounts of water and food intake were recorded weekly for the entire study period.

db/db mice [2] = test: Fasting plasma glucose (FPG) measurement; conditions: for Average FPG level: dosing 6 weeks
Experimental: Four to five weeks old db/db mice (BKS.Cg-Dock7^m+/+Lepr^db/JNarl) and m/m mice (BKS.Cg-Dock7^m+/Dock7^m+) were obtained from National Laboratory Animal Center (Nangang, Taipei, Taiwan). These animals were maintained in a facility with a 12-h dark-light cycle at 24±2° C. and 65±5% humidity and were provided food (No. 5001; PMI Nutrition International, Brentwood, Mo.) and water ad libitum. For experiments, the average body weight of m/m mice was approximately 20 g, and that of db/db mice was approximately 30 g.
For each mouse, blood was sampled from the tail vein and measured for FPG levels using a blood glucose meter (OneTouch UltraEasy, Johnson & Johnson, USA) at a predestined time point.

db/db mice [3] = test: Oral glucose tolerance test (OGTT); parameters: OGTT AUC: unit not given here
Experimental: Four to five weeks old db/db mice (BKS.Cg-Dock7^m+/+Lepr^db/JNarl) and m/m mice (BKS.Cg-Dock7^m+/Dock7^m+) were obtained from National Laboratory Animal Center ([…], Taiwan). […] PMI Nutrition International, Brentwood, Mo.) and water ad libitum. […] Blood was sampled from the tail vein, and FPG levels were measured and recorded as the basic blood glucose levels. […] The total area under the curve (AUC) in OGTT was plotted and calculated by the Area Under Coordinates Program (StatsToDo Server, Department of Obstetrics and Gynecology, Chinese University of Hong Kong).

[4] = Ex 1: db/db mice, ertapenem i.p. 0.41 mg/g bw/day, 3 weeks
[5] = Ex 3: db/db mice, daily dosing 3 weeks at doses of Table 10

SMILES: C[C@@H](O)[C@H]1C(=O)N2C(C(=O)O)=C(S[C@@H]3CN[C@H](C(=O)Nc4cccc(C(=O)O)c4)C3)[C@H](C)[C@H]12 [DMH, ertapenem]
- Food and water intake vs DB group ([1]; Ex 1: db/db mice, 0.41 mg/g bw/day i.p., entire study period, P<0.05): reduced
- Diet intake [1, 4]: 5.0 ± 0.9 g/mice/day
- Water intake [1, 4]: 6.8 ± 1.6 mL/mice/day
- Food intake in db/db mice ([1]; Ex 3, P<0.05): significantly reduced
- Water intake in db/db mice ([1]; Ex 3, P<0.05): significantly reduced
- Diet intake [1, 5]: 5.2 ± 1^b g/mice/day
- Water intake [1, 5]: 8.4 ± 1^c mL/mice/day
- Duration of blood-glucose-lowering effect after treatment was stopped (db/db mice [2]; Ex 2, db/db mice): at least 6 weeks
- Lowering blood glucose levels (FPG) in db/db mice (db/db mice [2]; Ex 2, week 3, 0.1 mg/g bw and 0.4 mg/g bw vs metformin 0.3 mg/g bw): as effective as metformin
- Average FPG level (db/db mice [2]; Ex 2 G4 db/db, DMH i.p. 0.1 mg/g bw/day, week 0): 139 ± 21^b
- Average FPG level (db/db mice [2]; Ex 2 G4 db/db, DMH i.p. 0.1 mg/g bw/day, week 3): 134 ± 21^b
- Average FPG level (db/db mice [2]; Ex 2 G4 db/db, DMH i.p. 0.1 mg/g bw/day, week 6): 219 ± 36^b
- Average FPG level (db/db mice [2]; Ex 2 G4 db/db, DMH i.p. 0.1 mg/g bw/day, week 9): 217 ± 37^bc
- Average FPG level (db/db mice [2]; Ex 2 G4 db/db, DMH i.p. 0.1 mg/g bw/day, week 12): 154 ± 30^ab
- Average FPG level (db/db mice [2]; Ex 2 G4 db/db, DMH i.p. 0.1 mg/g bw/day, week 16): 126 ± 43^ab
- Average FPG level (db/db mice [2]; Ex 2 G4 db/db, DMH i.p. 0.1 mg/g bw/day, week 18): 263 ± 58^b
- Average FPG level (db/db mice [2]; Ex 2 G5 db/db, DMH i.p. 0.2 mg/g bw/day, week 0): 142 ± 20^b
- Average FPG level (db/db mice [2]; Ex 2 G5 db/db, DMH i.p. 0.2 mg/g bw/day, week 3): 158 ± 25^bc
- Average FPG level (db/db mice [2]; Ex 2 G5 db/db, DMH i.p. 0.2 mg/g bw/day, week 6): 166 ± 21^b
- Average FPG level (db/db mice [2]; Ex 2 G5 db/db, DMH i.p. 0.2 mg/g bw/day, week 9): 212 ± 30^bc
- Average FPG level (db/db mice [2]; Ex 2 G5 db/db, DMH i.p. 0.2 mg/g bw/day, week 12): 191 ± 42^bc
- Average FPG level (db/db mice [2]; Ex 2 G5 db/db, DMH i.p. 0.2 mg/g bw/day, week 16): 154 ± 56^ab
- Average FPG level (db/db mice [2]; Ex 2 G5 db/db, DMH i.p. 0.2 mg/g bw/day, week 18): 308 ± 51^b
- Average FPG level (db/db mice [2]; Ex 2 G6 db/db, DMH i.p. 0.4 mg/g bw/day, week 0): 141 ± 23^b
- Average FPG level (db/db mice [2]; Ex 2 G6 db/db, DMH i.p. 0.4 mg/g bw/day, week 3): 121 ± 23^ab
- Average FPG level (db/db mice [2]; Ex 2 G6 db/db, DMH i.p. 0.4 mg/g bw/day, week 6): 175 ± 30^b
- Average FPG level (db/db mice [2]; Ex 2 G6 db/db, DMH i.p. 0.4 mg/g bw/day, week 9): 172 ± 27^b
- Average FPG level (db/db mice [2]; Ex 2 G6 db/db, DMH i.p. 0.4 mg/g bw/day, week 12): 166 ± 26^ac
- Average FPG level (db/db mice [2]; Ex 2 G6 db/db, DMH i.p. 0.4 mg/g bw/day, week 16): 108 ± 22^ab
- Average FPG level (db/db mice [2]; Ex 2 G6 db/db, DMH i.p. 0.4 mg/g bw/day, week 18): 266 ± 35^b
- OGTT AUC vs untreated mice (DB group) (db/db mice [3]; Ex 1, week 3, P<0.05): significantly smaller
- Glucose concentration in OGTT vs DB group (db/db mice [3]; Ex 1, week 3, time points of 90 min and 120 min (FIG. 1)): significantly lower
- OGTT AUC (db/db mice [3]; [4]): 1298 ± 186
- OGTT AUCs vs metformin-treated (G3) and untreated db/db mice (G2) (db/db mice [3]; Ex 2, G4 and G5, weeks 6, 12, and 16, P<0.05): significantly smaller
- Oral glucose tolerance of db/db mice after stop (db/db mice [3]; Ex 2, after the treatment had been stopped for 10 weeks): effectively increased
- Oral glucose tolerance (OGT) of db/db mice (db/db mice [3]; Ex 2, most time points (ertapenem: weeks 6 and 12)): significantly increased
- Level of OGTT (blood glucose) (db/db mice [3]; Ex 2 G4 db/db, DMH i.p. 0.1 mg/g bw/day, dosing 6 weeks, Week 6, 0 min): 219 ± 36 mg/dL
- Level of OGTT (blood glucose) (db/db mice [3]; Ex 2 G4 db/db, DMH i.p. 0.1 mg/g bw/day, dosing 6 weeks, Week 6, 15 min): 866 ± 38^bc
- Level of OGTT (blood glucose) (db/db mice [3]; Ex 2 G4 db/db, DMH i.p. 0.1 mg/g bw/day, dosing 6 weeks, Week 6, 30 min): 671 ± 62 mg/dL
- Level of OGTT (blood glucose) (db/db mice [3]; Ex 2 G4 db/db, DMH i.p. 0.1 mg/g bw/day, dosing 6 weeks, Week 6, 60 min): 486 ± 57 mg/dL
- Level of OGTT (blood glucose) (db/db mice [3]; Ex 2 G4 db/db, DMH i.p. 0.1 mg/g bw/day, dosing 6 weeks, Week 6, 120 min): 286 ± 44^bc
- Level of OGTT (blood glucose) (db/db mice [3]; Ex 2 G4 db/db, DMH i.p. 0.1 mg/g bw/day, dosing 6 weeks, Week 12, 0 min): 154 ± 30^ab
- Level of OGTT (blood glucose) (db/db mice [3]; Ex 2 G4 db/db, DMH i.p. 0.1 mg/g bw/day, dosing 6 weeks, Week 12, 15 min): 866 ± 36 mg/dL
- Level of OGTT (blood glucose) (db/db mice [3]; Ex 2 G4 db/db, DMH i.p. 0.1 mg/g bw/day, dosing 6 weeks, Week 12, 30 min): 794 ± 60^bc
- Level of OGTT (blood glucose) (db/db mice [3]; Ex 2 G4 db/db, DMH i.p. 0.1 mg/g bw/day, dosing 6 weeks, Week 12, 60 min): 503 ± 67 mg/dL
- Level of OGTT (blood glucose) (db/db mice [3]; Ex 2 G4 db/db, DMH i.p. 0.1 mg/g bw/day, dosing 6 weeks, Week 12, 120 min): 372 ± 83 mg/dL
- Level of OGTT (blood glucose) (db/db mice [3]; Ex 2 G4 db/db, DMH i.p. 0.1 mg/g bw/day, dosing 6 weeks, Week 16, 0 min): 126 ± 43^ab
- Level of OGTT (blood glucose) (db/db mice [3]; Ex 2 G4 db/db, DMH i.p. 0.1 mg/g bw/day, dosing 6 weeks, Week 16, 15 min): 575 ± 44 mg/dL
- Level of OGTT (blood glucose) (db/db mice [3]; Ex 2 G4 db/db, DMH i.p. 0.1 mg/g bw/day, dosing 6 weeks, Week 16, 30 min): 609 ± 39^c
- Level of OGTT (blood glucose) (db/db mice [3]; Ex 2 G4 db/db, DMH i.p. 0.1 mg/g bw/day, dosing 6 weeks, Week 16, 60 min): 506 ± 52^c
- Level of OGTT (blood glucose) (db/db mice [3]; Ex 2 G4 db/db, DMH i.p. 0.1 mg/g bw/day, dosing 6 weeks, Week 16, 120 min): 270 ± 65^bd
- Level of OGTT (blood glucose) (db/db mice [3]; Ex 2 G4 db/db, DMH i.p. 0.1 mg/g bw/day, dosing 6 weeks, Week 18, 0 min): 263 ± 58 mg/dL
- Level of OGTT (blood glucose) (db/db mice [3]; Ex 2 G4 db/db, DMH i.p. 0.1 mg/g bw/day, dosing 6 weeks, Week 18, 15 min): 785 ± 57 mg/dL
- Level of OGTT (blood glucose) (db/db mice [3]; Ex 2 G4 db/db, DMH i.p. 0.1 mg/g bw/day, dosing 6 weeks, Week 18, 30 min): 894 ± 49 mg/dL
- Level of OGTT (blood glucose) (db/db mice [3]; Ex 2 G4 db/db, DMH i.p. 0.1 mg/g bw/day, dosing 6 weeks, Week 18, 60 min): 735 ± 47 mg/dL
- Level of OGTT (blood glucose) (db/db mice [3]; Ex 2 G4 db/db, DMH i.p. 0.1 mg/g bw/day, dosing 6 weeks, Week 18, 120 min): 447 ± 53 mg/dL
- OGTT AUC (db/db mice [3]; Ex 2 G4 db/db, DMH i.p. 0.1 mg/g bw/day, dosing 6 weeks, week 6): 1033 ± 87^b
- OGTT AUC (db/db mice [3]; Ex 2 G4 db/db, DMH i.p. 0.1 mg/g bw/day, dosing 6 weeks, week 12): 1096 ± 119^b
- OGTT AUC (db/db mice [3]; Ex 2 G4 db/db, DMH i.p. 0.1 mg/g bw/day, dosing 6 weeks, week 16): 902 ± 85^b
- OGTT AUC (db/db mice [3]; Ex 2 G4 db/db, DMH i.p. 0.1 mg/g bw/day, dosing 6 weeks, week 18): 1339 ± 80^b
- Level of OGTT (blood glucose) (db/db mice [3]; Ex 2 G5 db/db, DMH i.p. 0.2 mg/g bw/day, dosing 6 weeks, Week 6, 0 min): 166 ± 21 mg/dL
- Level of OGTT (blood glucose) (db/db mice [3]; Ex 2 G5 db/db, DMH i.p. 0.2 mg/g bw/day, dosing 6 weeks, Week 6, 15 min): 750 ± 57 mg/dL
- Level of OGTT (blood glucose) (db/db mice [3]; Ex 2 G5 db/db, DMH i.p. 0.2 mg/g bw/day, dosing 6 weeks, Week 6, 30 min): 618 ± 68 mg/dL
- Level of OGTT (blood glucose) (db/db mice [3]; Ex 2 G5 db/db, DMH i.p. 0.2 mg/g bw/day, dosing 6 weeks, Week 6, 60 min): 425 ± 63 mg/dL
